Data from patent publication US6924289B2, “Benzyl(Idene)-lactam derivatives, their preparation and their use as selective (ANT) agonists of 5-HT1A- and/or 5-HT1D receptors” (Pfizer Inc, priority 1996, dated 2005).
Structures can show the parent of a compound that is named as a salt.

melting point | Structure (SMILES)
106 to 108 °C | CN1CCN(c2ccccc2CC2CCCN(c3ccc(Cl)c(Cl)c3)C2=O)CC1.Cl (stereo not drawn)
111 to 112 °C | CN(C)CCOc1ccccc1C=C1CCN(c2ccc(Cl)c(Cl)c2)C1=O (as salt: HCl) [Example 27, 1-(3,4-Dichlorophenyl)-3-[2-(2-dimethylaminoethoxy)-benzylidene]-pyrrolidin-2one]
120 °C (dec.) | CN1CCN(c2ccccc2C=C2C(=O)N(C)c3ccccc32)CC1.Cl.O (hydrate or solvate)
185 to 186.5 °C | CN1CCN(c2ccccc2C=C2CCN(c3ccc(C(F)(F)F)cc3)C2=O)CC1 [Example 16, 3-[2-(4-Methylpiperazin-1-yl)-benzylidene]-1-(4-trifluoromethylphenyl)-pyrrolidin-2-one]
188 to 190 °C | CN1CCN(c2ccccc2C=C2CCN(c3ccc(Cl)cc3)C2=O)CC1 [Example 18, 1-(4-Chlorophenyl)-3-[2-(4-methylpiperazin-1-yl)-benzylidene]-pyrrolidin-2-one]
199 to 200.5 °C | CN1CCN(c2cc(F)ccc2C=C2CCN(c3ccccc3)C2=O)CC1 [Example 19, 3-[4Fluoro-2-(4-methylpiperazin-1-yl)-benzylidene]-1-phenylpyrrolidin-2-one]
168 to 170 °C | CN1CCN(c2ccc(F)cc2C=C2CCCN(c3ccc(F)c(F)c3)C2=O)CC1 [Example 21, 1-(3,4-Difluorophenyl)-3-[5-fluoro-2(4-methylpiperazin-1-yl)-benzylidene]-piperidin-2-one]
88 to 90 °C | CN1CCN(c2ccc(F)cc2C=C2CCCN(CCc3ccc(Cl)cc3)C2=O)CC1 [Example 22, 1-[2-(4Chlorophenyl)ethyl]-3-[5-fluoro-2-(4-methylpiperazin-1-yl)-benzylidene]-piperidin-2-one]
131 to 132 °C | CN1CCN(c2ccc(F)cc2C=C2CCN(Cc3ccc(Cl)cc3)C2=O)CC1 [Example 24, 1-(4-Chlorobenzyl)-3-[5-fluoro-2-(4-methylpiperazin-1-yl)-benzylidene]-pyrrolidin-2one]
149 to 150 °C | Cc1ccc(N2CCN(C)CC2)c(C=C2CCN(c3ccc(Cl)c(Cl)c3)C2=O)c1 [Example 28, 1-(3,4-Dichlorophenyl)-3-[5-methyl-2-(4-methylpiperazin-1-yl)-benzylidene]-pyrrolidin-2one]
130 to 131 °C | CN1CCN(c2ccccc2CC2CCN(c3ccc(F)c(F)c3)C2=O)CC1 (stereo not drawn) [Example 29, 1-(3,4-Difluorophenyl)-3-[2-(4-methylpiperazin-1-yl)-benzyl]-pyrrolidin-2-one]
104 to 105.5 °C | CN1CCN(c2ccccc2CC2CCN(c3ccccc3)C2=O)CC1 (stereo not drawn) [Example 30, 3-[2-(4-Methylpiperazin-1-yl)-benzyl]-1-phenyl-pyrrolidin-2-one]

Second part, the compound before the results:

Structure (SMILES) | melting point
CN1CCN(c2ccc(F)cc2CC2CCCN(c3ccc(Cl)c(Cl)c3)C2=O)CC1.Cl (stereo not drawn) | 83 to 85 °C
CN1CCN(c2ccccc2C=C2CCN(c3ccc(C(F)(F)F)cc3)C2=O)CC1 (as salt: hydrochloride) (hydrate or solvate) [Example 16, 3-[2-(4-Methylpiperazin-1-yl)-benzylidene]-1-(4-trifluoromethylphenyl)-pyrrolidin-2-one] | 181 to 183 °C
CN1CCN(c2ccccc2C=C2CCCN(c3ccc(Cl)cc3)C2=O)CC1 [Example 11, 1-(4Chlorophenyl)-3-[2-(4-methylpiperazin-1-yl)-benzylidene]-piperidin-2-one] | 177 to 178 °C
CN1CCN(c2ccccc2C=C2CCCN(c3ccc(Cl)c(Cl)c3)C2=O)CC1 [Example 12, 1-(3,4-Dichlorophenyl)-3-[2-(4-methylpiperazin-1-yl)-benzylidene]-piperidin-2-one] | 138 to 139.5 °C
CN1CCN(c2ccc(F)cc2C=C2CCCN(c3ccc(Cl)cc3)C2=O)CC1 [Example 13, 1-(4-Chlorophenyl)-3-[5-fluoro-2-(4-methylpiperazin-1-yl)-benzylidene]-piperidin-2-one] | 158 to 159 °C
CN1CCN(c2ccc(F)cc2C=C2CCCN(c3ccc(Cl)c(Cl)c3)C2=O)CC1 [Example 14, 1-(3,4-Dichlorophenyl)-3-[5-fluoro-2-(4methylpiperazin-1-yl)-benzylidene]-piperidin-2-one] | 161 to 162 °C
CN1CCN(c2ccccc2C=C2CCN(c3ccccc3)C2=O)CC1 [Example 15, 3-[2-(4-Methylpiperazin-1-yl)-benzylidene]-1 phenylpyrrolidin-2-one] | 178 to 179.5 °C
CN1CCN(c2cccc(F)c2C=C2CCN(c3ccc(Cl)c(Cl)c3)C2=O)CC1 [Example 20, 1-(3,4-Dichlorophenyl)-3-[2-fluoro-6-(4-methylpiperazin-1-yl)-benzylidene]-pyrrolidin-2-one] | 170 to 171 °C
CN1CCN(c2ccccc2C=C2CCN(Cc3ccc(Cl)cc3)C2=O)CC1 [Example 23, 1-(4-Chlorobenzyl)-3-[2-(4-methylpiperazin-1-yl)-benzylidene]-pyrrolidin-2-one] | 129 to 130 °C
